ChEMBL document CHEMBL3817726, “Chemically Diverse Group I p21-Activated Kinase (PAK) Inhibitors Impart Acute Cardiovascular Toxicity with a Narrow Therapeutic Window” (J Med Chem, 2016)
≈ marks a conversion by molar mass, not a printed value.

Experiments:
[1] = Lipophilicity, log D of the compound at pH 7.4; type: physicochemical; conditions: buffer
[2] = Apparent permeability across apical to basolateral side in MDCK cells at 10 uM after 60 mins; type: ADME, cell-based, Canis lupus familiaris; conditions: dog
[3] = Efflux ratio of permeability across basolateral to apical side over apical to basolateral side in MDCK cells at 10 uM after 60 mins; type: ADME, cell-based, Canis lupus familiaris; conditions: dog
[4] = Kinetic solubility of the compound at pH 7.4; type: physicochemical; conditions: buffer, read-out: Kinetic_solubility
Homo sapiens [5] = species: Homo sapiens; test: Selectivity for human recombinant N-terminal 6-His-tagged PAK1 kinase domain (249 to 545 residues) over LCK (unknown origin)
[6] = molecular target: Serine/threonine-protein kinase PAK 1 (Homo sapiens, UniProt Q13153); test: Inhibition of human recombinant N-terminal 6-His-tagged PAK1 kinase domain (249 to 545 residues) expressed in Escherichia coli BL21(DE3) assessed as phosphorylation of coumarin labeled FRET peptide substrate at Ser/Thr19 preincubated for 10 mins followed by ATP addition measured after 60 mins by Z'-LYTE assay
[7] = molecular target: Serine/threonine-protein kinase PAK 1/PAK 2 (Homo sapiens, UniProt Q13177+Q13153); test: Inhibition of PAK1/2 in human EBC1 cells assessed as phosphorylation of MEK1 at serine 298 after 2 hrs by HTRF assay; type: cell-based
Homo sapiens [8] = species: Homo sapiens; test: Selectivity for human recombinant N-terminal 6-His-tagged PAK1 kinase domain (249 to 545 residues) over human recombinant PAK4 kinase domain
[9] = Apparent permeability across basolateral to apical side in MDCK cells at 10 uM after 60 mins; type: ADME, cell-based, Canis lupus familiaris; conditions: dog

Chain of Serine/threonine-protein kinase PAK 1 (Q13153 whole entry, the tested form may be a part): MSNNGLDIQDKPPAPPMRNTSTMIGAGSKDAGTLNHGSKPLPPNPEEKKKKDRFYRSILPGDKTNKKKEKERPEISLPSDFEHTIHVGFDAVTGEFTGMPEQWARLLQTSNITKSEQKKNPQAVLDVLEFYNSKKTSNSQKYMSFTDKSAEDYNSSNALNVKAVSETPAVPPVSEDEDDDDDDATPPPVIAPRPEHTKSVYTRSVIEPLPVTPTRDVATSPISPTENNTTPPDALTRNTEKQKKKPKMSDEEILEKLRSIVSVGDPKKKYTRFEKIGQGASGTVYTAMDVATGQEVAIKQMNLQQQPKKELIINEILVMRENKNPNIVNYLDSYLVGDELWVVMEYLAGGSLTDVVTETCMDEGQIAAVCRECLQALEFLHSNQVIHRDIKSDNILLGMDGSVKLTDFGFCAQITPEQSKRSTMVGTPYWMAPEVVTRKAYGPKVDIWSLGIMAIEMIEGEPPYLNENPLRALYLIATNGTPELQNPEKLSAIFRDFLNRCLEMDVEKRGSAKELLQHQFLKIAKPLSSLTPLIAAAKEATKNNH

Row | SMILES | logD [1] | Papp A→B at 1 h, 10 µM [2] [×10⁻⁶ cm/s] | efflux ratio at 1 h, 10 µM [3] | solubility kinetic [4] [µM] | Selectivity ratio (Homo sapiens [5]) | Ki [6] [nM] | IC50 [7] [nM] | Selectivity ratio (Homo sapiens [8]) | Papp B→A at 1 h, 10 µM [9] [×10⁻⁶ cm/s]
1 | CNc1ncc2cc(-c3ccc(-n4cccc(C)c4=O)cc3Cl)c(=O)n(CCOC)c2n1 | 2.2 | 27 | 0.5 | 80 (≈ 36.2 µg/mL) | 38 | 13 | 450 |  | 
2 | CNc1ncc2cc(-c3ccc(-n4cccc(C)c4=O)cc3Cl)c(=O)n(CCO)c2n1 | 2.2 | 5.5 | 2.8 | 15 (≈ 6.57 µg/mL) | 63 | 17 | 930 |  | 
3 | CNc1ncc2cc(-c3ccc(-n4cncc(C)c4=O)cc3Cl)c(=O)n(CCCN)c2n1 |  |  |  |  | 282 | 6.7 |  | > 443 | 
4 | CCn1c(=O)c(-c2ccc(-n3cccc(C)c3=O)cc2Cl)cc2cnc(NC)nc21 | 2.1 | 28 | 0.4 | 2.5 (≈ 1.05 µg/mL) | 53 | 8 | 340 |  | 
5 | CNc1ncc2cc(-c3ccc(-n4cccc(C)c4=O)cc3Cl)c(=O)n(CC(F)(F)CN)c2n1 | 1.8 | 8.4 | 1.8 | 51 (≈ 24.8 µg/mL) | 56 | 9 | 460 |  | 15.4

Compounds with a lower Ki [6], results first:

Row | logD [1] | Papp A→B at 1 h, 10 µM [2] [×10⁻⁶ cm/s] | efflux ratio at 1 h, 10 µM [3] | solubility kinetic [4] [µM] | Selectivity ratio (Homo sapiens [5]) | Ki [6] [nM] | IC50 [7] [nM] | Selectivity ratio (Homo sapiens [8]) | Papp B→A at 1 h, 10 µM [9] [×10⁻⁶ cm/s] | SMILES
6 | 0.63 | 0.2 | 26 | 71 (≈ 36 µg/mL) | 86 | 4.4 | 88 |  |  | CNc1ncc2cc(-c3ccc(-n4cccc(C)c4=O)cc3Cl)c(=O)n(CCOC3CN(C)C3)c2n1
7 | 0.9 | 9.7 | 1.3 | 115 (≈ 60.6 µg/mL) | 20 | 2.7 | 78 |  |  | CNc1ncc2cc(-c3ccc(-n4cccc(C)c4=O)cc3Cl)c(=O)n(CC3CCNCC3(F)F)c2n1 (racemic)
8 |  |  |  |  | 53 | 3.3 |  | 449 |  | CNc1ncc2cc(-c3ccc(-c4cccc(C)n4)cc3Cl)c(=O)n(CCCN)c2n1
9 | 0.05 | 0.1 | 4.3 | 82 (≈ 37 µg/mL) | 221 | 3.5 | 602 | 517 | 0.33 | CNc1ncc2cc(-c3ccc(-n4cccc(C)c4=O)cc3Cl)c(=O)n(CCCN)c2n1
